# Earlier results, collected in patent publication US12090222B2, “Method for dyeing keratin material, comprising the use of an organosilicon compound, two dyeing compounds and a post-treatment agent” (Henkel AG & Co. KGaA, priority 2020, dated 2024).
# Details: 25° C.
solubility in water (in words),Molecule,solubility in water
–,"O=S(=O)([O-])c1ccc(N=Nc2c(O)ccc3ccccc23)cc1.[Na+] [Acid Orange 7, sodium salt of 4-[(2-hydroxy-1-naphthyl)azo]benzene sulphonate]",more than 7 g/L
highly soluble,"O=C([O-])C1=NN(c2ccc(S(=O)(=O)[O-])cc2)C(=O)C1N=Nc1ccc(S(=O)(=O)[O-])cc1.[Na+].[Na+].[Na+] (centres unmarked) [Acid Yellow 23, trisodium salt of 4,5-dihydro-5-oxo-1-(4-sulfophenyl)-4-((4-sulfophenyl)azo)-1H-pyrazole-3-carboxylic acid]",–
–,"Nc1cc(S(=O)(=O)[O-])cc2cc(S(=O)(=O)[O-])c(N=Nc3ccccc3)c(O)c12.[Na+].[Na+] [Acid Red 33, disodium salt of 5-amino-4-hydroxy-3-(phenylazo)-naphthalene-2,7-disulphonate]",about 2.5 g/L
–,"mixture of the sodium salts of mono- and disulfonic acids of 2-(2-quinolyl)-1H-indene-1,3(2H)-dione [Acid Yellow 3]",about 20 g/L
–,"O=C([O-])c1c(Cl)c(Cl)c(Cl)c(Cl)c1-c1c2c(Br)cc(=O)c(Br)c-2oc2c(Br)c(O)cc(Br)c12.O=C([O-])c1c(Cl)c(Cl)c(Cl)c(Cl)c1-c1c2c(Br)cc(=O)c(Br)c-2oc2c(Br)c(O)cc(Br)c12.[Na+].[Na+] [Acid Red 92, disodium salt of 3,4,5,6-tetrachloro-2-(1,4,5,8-tetrabromo-6-hydroxy-3-oxoxanthen-9-yl)benzoic acid]",greater than 10 g/L
